Results on nine compounds are retold here after ChEMBL document CHEMBL4725299, “Design and synthesis of peptidic partial agonists of human neuromedin U receptor 1 with enhanced serum stability” (Bioorg Med Chem Lett, 2020).

Starred links: 1 amine or outer side, 2 acyl side, 3 side chain; linkers in the order of their positions; H or OH if unused. Non-standard residues stand in square brackets, D forms with d. Residues, ends and D or L forms follow the SMILES beside them. *: point of attachment. X1 = O=C([C@H](Cc1ccc(Cc2ccccc2)cc1)N[*:1])[*:2]; Acetyl(2-naphthyloxy) = O=C(COc1ccc2ccccc2c1)*; Propanoyl(3-(3-pyridyl)) = O=C(CCc1cccnc1)*; Bip = N[C@@H](Cc1ccc(-c2ccccc2)cc1)C(=O)O; αMeW = C[C@](N)(Cc1c[nH]c2ccccc12)C(=O)O; 2Nal = N[C@@H](Cc1ccc2ccccc2c1)C(=O)O; Acetyl(2-thienyl) = O=C(Cc1cccs1)*; αMeF = C[C@](N)(Cc1ccccc1)C(=O)O; Tic = O=C(O)[C@@H]1Cc2ccccc2CN1

For data set [1], the target named is T1, Neuromedin-U receptor 1 (Homo sapiens, UniProt Q9HB89).
T1 sequence (Q9HB89 whole entry): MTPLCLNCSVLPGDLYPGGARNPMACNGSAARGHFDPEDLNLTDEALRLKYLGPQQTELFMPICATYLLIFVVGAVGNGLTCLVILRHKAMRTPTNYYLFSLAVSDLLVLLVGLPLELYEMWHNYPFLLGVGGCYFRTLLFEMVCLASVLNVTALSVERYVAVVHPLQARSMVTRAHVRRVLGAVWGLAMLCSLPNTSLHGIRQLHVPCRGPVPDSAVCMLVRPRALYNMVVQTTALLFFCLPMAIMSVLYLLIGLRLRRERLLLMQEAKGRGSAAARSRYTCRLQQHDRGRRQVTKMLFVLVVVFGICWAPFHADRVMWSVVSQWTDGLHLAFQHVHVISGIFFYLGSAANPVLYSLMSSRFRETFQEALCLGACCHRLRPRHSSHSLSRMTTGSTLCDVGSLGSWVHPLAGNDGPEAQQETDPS
Nature of the data set: Agonist activity at human NMUR1 expressed in CHO cells at 10 nM by calcium mobilization assay. The class given is cell-based. The note with it: 0.01 µM. In general terms: Calcium assays in cells follow changes in intracellular calcium, usually with a dye or a luminescent sensor.

The target of data set [2] is T2, Neuromedin-U receptor 2 (Homo sapiens, UniProt Q9GZQ4). Nature of the data set: Agonist activity at human NMUR2 expressed in CHO cells at 10 nM by calcium mobilization assay. The class given is cell-based. The note with it: 0.01 µM.
T2 sequence (Q9GZQ4 whole entry): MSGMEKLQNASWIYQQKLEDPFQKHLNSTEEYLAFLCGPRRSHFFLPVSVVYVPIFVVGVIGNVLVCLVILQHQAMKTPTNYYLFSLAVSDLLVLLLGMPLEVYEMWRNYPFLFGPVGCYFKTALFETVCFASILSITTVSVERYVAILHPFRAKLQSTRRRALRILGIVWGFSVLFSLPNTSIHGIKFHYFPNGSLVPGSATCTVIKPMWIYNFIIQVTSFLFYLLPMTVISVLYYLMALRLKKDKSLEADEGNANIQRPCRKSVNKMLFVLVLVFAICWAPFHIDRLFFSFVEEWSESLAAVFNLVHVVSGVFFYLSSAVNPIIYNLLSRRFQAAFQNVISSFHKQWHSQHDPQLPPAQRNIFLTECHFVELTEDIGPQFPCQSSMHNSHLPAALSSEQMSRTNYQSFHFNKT
The target of data set [3] is T1, Neuromedin-U receptor 1. In words: Agonist activity at human NMUR1 expressed in CHO cells at 1000 nM by calcium mobilization assay relative to control. The note with it: read-out: Activity. The class given is cell-based.
Data set [4] is described as follows: Stability of the compound in 25% human serum assessed as residual rate at 50 uM incubated for 10 mins at 37 degreeC. The class given is ADME, cell-free. The note with it: read-out: Stabilty.
Data set [5] has as its target T1, Neuromedin-U receptor 1. Nature of the data set: Agonist activity at human NMUR1 expressed in CHO cells at 100 nM by calcium mobilization assay relative to control. The class given is cell-based. The following applies: read-out: Activity.
Data set [6] concerns the target T1, Neuromedin-U receptor 1. Nature of the data set: Agonist activity at human NMUR1 expressed in CHO cells at 10 nM by calcium mobilization assay relative to control. The note with it: read-out: Activity. The class given is cell-based.
Data set [7] concerns the target T2, Neuromedin-U receptor 2. In words: Agonist activity at human NMUR2 expressed in CHO cells at 10 nM by calcium mobilization assay relative to control. The class given is cell-based. The note with it: read-out: Activity.
The nature of data set [8]: Half life of the compound in 25% human serum. Type of data set: ADME, cell-free.
Data set [9] has as its target T3, Neuromedin-U receptor 1 (Homo sapiens) (UniProt Q9HB89).
T3 sequence (whole entry): T1 sequence (Q9HB89 whole entry)
Nature of the data set: Partial agonist activity at human NMUR1 expressed in CHO cells assessed as intrinsic activity at 10^-6 to 10^-12 M by calcium mobilization assay relative to control. Type of data set: functional, cell-based. The note with it: filed as partial agonist, dose pM 1-1000000.

Data set [10] deals with T1, Neuromedin-U receptor 1. In words: Partial agonist activity at human NMUR1 expressed in CHO cells by calcium mobilization assay. The class given is functional, cell-based.
The target in data set [11] is T2, Neuromedin-U receptor 2. In words: Agonist activity at human NMUR2 expressed in CHO cells at 100 nM by calcium mobilization assay. The class given is cell-based. The following applies: 0.1 µM.
Data set [12] can be described thus: Stability of the compound in 25% human serum assessed as intact residual rate at 50 uM incubated for 180 mins at 37 degreeC. The class given is ADME, cell-free. The note with it: read-out: Stabilty.
In data set [13] the target is T1, Neuromedin-U receptor 1. In words: Agonist activity at human NMUR1 expressed in CHO cells by calcium mobilization assay. The class given is cell-based.
Data set [14] concerns the target T1, Neuromedin-U receptor 1. Nature of the data set: Agonist activity at human NMUR1 expressed in CHO cells assessed as intrinsic activity at 10^-6 to 10^-12 M by calcium mobilization assay relative to control. Type of data set: cell-based. The following applies: read-out: Intrinsic activity.
A short description of data set [15]: Drug metabolism in 25% human serum assessed as M1 metabolite formation at 50 uM incubated for 180 mins at 37 degreeC by HPLC analysis. The class given is ADME, cell-free. The following applies: 3 h.
Data set [16] in a line: Drug metabolism in 25% human serum assessed as M2 metabolite formation at 50 uM incubated for 180 mins at 37 degreeC by HPLC analysis. Type of data set: ADME, cell-free. The following applies: 3 h.
The target in data set [17] is T2, Neuromedin-U receptor 2. In words: Agonist activity at human NMUR2 expressed in CHO cells by calcium mobilization assay. The class given is cell-based.
Data set [18] is described as follows: Selectivity index, ratio of EC50 for agonist activity for human NMUR2 expressed in CHO cells to EC50 for agonist activity for human NMUR1 expressed in CHO cells by calcium mobilization assay. The class given is cell-based.
In data set [19] the target is T2, Neuromedin-U receptor 2. In words: Agonist activity at human NMUR2 expressed in CHO cells at 1000 nM by calcium mobilization assay relative to control. Type of data set: cell-based. The following applies: read-out: Activity.

Consider `N=C(N)NCCC[C@H](NC(=O)[C@@H]1CCCN1C(=O)[C@H](CCCNC(=N)N)NC(=O)[C@H](Cc1ccc(-c2ccccc2)cc1)NC(=O)COc1ccc2ccccc2c1)C(=O)N[C@@H](CC(N)=O)C(N)=O` ({Acetyl(2-naphthyloxy)}-[Bip]RPRN-NH2), for which the Activity entry on Neuromedin-U receptor 1 [1] and at Neuromedin-U receptor 2 [2] was “Not Active” throughout. For the same compound, the activity at 1 µM on Neuromedin-U receptor 1 [3] came out at 28%.

As to `N=C(N)NCCC[C@H](NC(=O)[C@@H]1CCCN1C(=O)[C@H](CCCNC(=N)N)NC(=O)[C@H](Cc1ccc(Cc2ccccc2)cc1)NC(=O)[C@H](Cc1c[nH]c2ccccc12)NC(=O)Cc1cccs1)C(=O)N[C@@H](CC(N)=O)C(N)=O` ({Acetyl(2-thienyl)}-W[X1]RPRN-NH2), in data set [4], the remaining at 10 min, 50 µM was 95%. Moreover, the activity at 0.1 µM on Neuromedin-U receptor 1 [5] is 88%.

With `N=C(N)NCCC[C@H](NC(=O)[C@@H]1CCCN1C(=O)[C@H](CCCNC(=N)N)NC(=O)[C@H](Cc1ccccc1)NC(=O)[C@H](Cc1ccc2ccccc2c1)NC(=O)CCc1cccnc1)C(=O)N[C@@H](CC(N)=O)C(N)=O` ({Propanoyl(3-(3-pyridyl))}-[2Nal]FRPRN-NH2), the remaining at 10 min, 50 µM in [4] stood at 35%. Moreover, the values for the activity at 0.01 µM on Neuromedin-U receptor 1 [6] and at Neuromedin-U receptor 2 [7] were 61% and 19%, respectively. In addition, the half-life in data set [8] was determined as 20 min. For the same compound, the Intrinsic activity in data set [9] was found to be 71%. Also, the EC50 at Neuromedin-U receptor 1 [10] was 1.7 nM.

As for `C[C@@](Cc1ccccc1)(NC(=O)[C@H](Cc1ccc2ccccc2c1)NC(=O)CCc1cccnc1)C(=O)N[C@@H](CCCNC(=N)N)C(=O)N1CCC[C@H]1C(=O)N[C@@H](CCCNC(=N)N)C(=O)N[C@@H](CC(N)=O)C(N)=O` ({Propanoyl(3-(3-pyridyl))}-[2Nal][αMeF]RPRN-NH2), the Activity result at Neuromedin-U receptor 1 [1] and on Neuromedin-U receptor 2 [2] was “Not Active” each time.

On to `N=C(N)NCCC[C@H](NC(=O)[C@@H]1CCCN1C(=O)[C@H](CCCNC(=N)N)NC(=O)[C@H](Cc1ccc(-c2ccccc2)cc1)NC(=O)[C@H](Cc1c[nH]c2ccccc12)NC(=O)Cc1cccs1)C(=O)N[C@@H](CC(N)=O)C(N)=O` ({Acetyl(2-thienyl)}-W[Bip]RPRN-NH2), for which the remaining at 10 min, 50 µM in data set [4] came to 95%. Also, the activity at 0.1 µM on Neuromedin-U receptor 1 [5] came to 88%. In addition, at Neuromedin-U receptor 2 [11], the Activity entry is listed as “Not Active”. Also, in data set [12], the remaining at 3 h, 50 µM turned out to be 35%.

Turning to `C[C@@](Cc1c[nH]c2ccccc12)(NC(=O)[C@H](Cc1c[nH]c2ccccc12)NC(=O)Cc1cccs1)C(=O)N[C@@H](CCCNC(=N)N)C(=O)N1CCC[C@H]1C(=O)N[C@@H](CCCNC(=N)N)C(=O)N[C@@H](CC(N)=O)C(N)=O` ({Acetyl(2-thienyl)}-W[αMeW]RPRN-NH2), in [12], the remaining at 3 h, 50 µM turned out to be 39%.

For `N=C(N)NCCC[C@H](NC(=O)[C@@H]1CCCN1C(=O)[C@H](CCCNC(=N)N)NC(=O)[C@H](Cc1ccc(-c2ccccc2)cc1)NC(=O)[C@H](Cc1ccc2ccccc2c1)NC(=O)CCc1cccnc1)C(=O)N[C@@H](CC(N)=O)C(N)=O` ({Propanoyl(3-(3-pyridyl))}-[2Nal][Bip]RPRN-NH2), the EC50 at Neuromedin-U receptor 1 [13] was 3.2 nM; at Neuromedin-U receptor 2 [17] it was > 1000 nM. In addition, the activity at 0.01 µM at Neuromedin-U receptor 1 [6] turned out to be 59%. Besides, the Emax on Neuromedin-U receptor 1 [14] was 75%. The remaining at 3 h, 50 µM in data set [12] was determined as 84%. Besides, the Drug metabolism result in data set [15] and in data set [16] was “Metabolite_Detected” throughout. Besides, the “Ratio EC50” value in data set [18] is > 300.

Turning to `COc1ccc(C[C@H](NC(=O)[C@H](Cc2c[nH]c3ccccc23)NC(=O)Cc2cccs2)C(=O)N[C@@H](CCCNC(=N)N)C(=O)N2CCC[C@H]2C(=O)N[C@@H](CCCNC(=N)N)C(=O)N[C@@H](CC(N)=O)C(N)=O)cc1` ({Acetyl(2-thienyl)}-WY(Me)RPRN-NH2), the remaining at 10 min, 50 µM in data set [4] was 48%.

For the compound `N=C(N)NCCC[C@H](NC(=O)[C@@H]1CCCN1C(=O)[C@H](CCCNC(=N)N)NC(=O)[C@@H]1Cc2ccccc2CN1C(=O)COc1ccc2ccccc2c1)C(=O)N[C@@H](CC(N)=O)C(N)=O` ({Acetyl(2-naphthyloxy)}-[Tic]RPRN-NH2), the half-maximal effective concentration (EC50) on Neuromedin-U receptor 1 [13] is 30 nM. Further, the remaining at 10 min, 50 µM in data set [4] came to 64%. Also, on Neuromedin-U receptor 1 [6], the activity at 0.01 µM came to 30%. The Emax at Neuromedin-U receptor 1 [14] was determined as 67%. Also, the “Ratio EC50” value in [18] came to 30. Besides, at Neuromedin-U receptor 2 [19], the activity at 1 µM came out at 48%.

By half-life is commonly meant the time in which the quantity being followed falls by half. As usually defined, the EC50 is the concentration that produces a half-maximal response.
